These results are taken from US20120283802A1, “FAR-INFRARED RADIATION IN USE OF IMPROVING PATENCY OF ARTERIOVENOUS FISTULA, DECREASING FAILURE OF ARTERIOVENOUS FISTULA MATURATION, AND PREVENTING AND/OR AMELIORATING PERIPHERAL ARTERY DISEASES” (priority 2007, published 2012).

Molecules are shown by their SMILES.

In test [1] the test system is VCAM-1 expression in HUVECs. As to the kind of experiment: TNF-α-induced VCAM-1 expression in HUVECs, western blot. It is filed as cell-based, Human. The protocol:
Human umbilical vein endothelial cells (HUVEC) (Walkersville, Md.) were serially cultured on gelatin-coated dishes and propagated in M199 medium supplemented with 20% bovine calf serum, 2 mM L-glutamine, 50 μg/ml endothelial cell growth factor, 90 μg/ml heparin, and 100 U/ml of penicillin and streptomycin. The cells were treated with FIR for 10 min, 20 min, 40 min using WS™ TY101 FIR emitter (WS Far Infrared Medical Technology Co., Ltd., Taipei, Taiwan). The top emitter was set at a height of 25 cm above the surface of the cells. After FIR treatment, the cells were collected at 0 h, 2 h, 4 h, 6 h, 24 h, and 48 h, and then the expression of HO-1 was analyzed by western blot and quantified by laser densitometry. The cells were lysed in a sample buffer (125 mM Tris [pH 6.8], 12.5% glycerol, 2% SDS, 50 mM sodium fluoride, and trace bromophenol blue) and proteins were separated by SDS-PAGE. Following transfer to a nitrocellulose membrane, blots were blocked with PBS and nonfat milk (5%) and then incubated with antibodies directed against HO-1 (1:500). Membranes were then washed in PBS, incubated with horseradish peroxidase-conjugated goat anti-rabbit or anti-goat antibody and developed with commercial chemoluminescence reagents (Amersham, Arlington Heights, Ill.). […]
The expression of VCAM-1 was analyzed under different combinations of TNFα, FIR, HO-1 inhibitor by a western blot. […]

The subject of the next test is HO-1 expression. As to the kind of experiment: HO-1 expression by western blot quantified by laser densitometry. The settings on record: relative to control cells; SnPP 20 μM per Table 2. In kind it is cell-based, Human. The method, then: Human umbilical vein endothelial cells (HUVEC) (Walkersville, Md.) were serially cultured on gelatin-coated dishes and propagated in M199 medium supplemented with 20% bovine calf serum, 2 mM L-glutamine, 50 μg/ml endothelial cell growth factor, 90 μg/ml heparin, and 100 U/ml of penicillin and streptomycin. The cells were treated with FIR for 10 min, 20 min, 40 min using WS™ TY101 FIR emitter (WS Far Infrared Medical Technology Co., Ltd., Taipei, Taiwan). The top emitter was set at a height of 25 cm above the surface of the cells. After FIR treatment, the cells were collected at 0 h, 2 h, 4 h, 6 h, 24 h, and 48 h, and then the expression of HO-1 was analyzed by western blot and quantified by laser densitometry. […]
U937 cells were classified into 10 groups (F, T, TF, STF, HTF, NTF, S, H, N, or C) according to the combination of different treatment, and the experimental conditions of groups are listed in Table 2. […] After 1 hour of incubation, nonadherent monocytes were removed by PBS washing and the radioactivity associated with adherent cells were quantified by scintillation spectrometry after lysis with 0.2% SDS/0.2 N NaOH. Additionally, the expression of HO-1 was analyzed by western blot and quantified by laser densitometry. […]

In the case of `C=Cc1c2[n-]c(c1C)/C=c1\[n-]/c(c(C)c1C=C)=C\c1[n-]c(c(CCC(=O)O)c1C)/C=c1\[n-]c(c(C)c1CCC(=O)O)=C2.[Sn+4]` [SnPP, tin protoporphyrin], the “FIR-induced inhibitory effect of VCAM-1 expression” value in test [1] (TNF-α 100 ng/ml + 40 min FIR, SnPP 10 μM (group 3) and 20 μM (group 4), higher expression at 20 μM) is on record as “reversed”. Further, in test [1] (single treatment with SnPP 20 μM, without pre-treatment with TNF-α (group 6)), the “expression of VCAM-1” value is “did not induce”. Besides, the “HO-1 expression, of that of the control cells” value with HO-1 expression was “approximately 20%”.
